In the test the target is T1, human complement factor D (Homo sapiens, UniProt P00746).
T1 construct: purchased R&D Systems 1824-SE
As to the kind of experiment: In vitro enzyme inhibition of human complement factor D (Z-Lys-SBzl/DTNB, A405). In kind it is biochemical. A digest of the protocol: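 Buffer 50 mM Tris/HCl pH 7.5, 1 M NaCl, 0.5% final DMSO; compounds pre-incubated with enzyme 5 min at room temperature, then Z-Lys-SBzl with DTNB added (each diluted to 200 μM before addition).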

Where [1] appears, read: biochemical assay, substrate Z-Lys-SBzl, read-out: CFD IC50.

Like-named read-outs stand apart in the source and are kept apart here.

T1 sequence (P00746 26-253): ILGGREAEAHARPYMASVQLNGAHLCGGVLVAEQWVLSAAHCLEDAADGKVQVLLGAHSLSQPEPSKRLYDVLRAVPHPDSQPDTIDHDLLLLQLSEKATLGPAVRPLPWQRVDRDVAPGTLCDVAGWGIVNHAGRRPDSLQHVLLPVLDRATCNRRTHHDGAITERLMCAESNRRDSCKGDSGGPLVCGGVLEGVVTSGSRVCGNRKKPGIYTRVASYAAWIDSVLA

In general, IC50 refers to the point on the concentration scale where inhibition reaches its midpoint. In the case of `NC(=O)c1nn(CC(=O)N(CC(=O)NCc2ccc(CO)c(Cl)c2F)C2CC2)c2ccccc12` [Example 99, 1-(2-((2-((3-chloro-2-fluoro-4-(hydroxymethyl)benzyl)amino)-2-oxoethyl)(cyclopropyl)amino)-2-oxoethyl)-1H-indazole-3-carboxamide], the IC50 under setting [1] is over 10 µM.
In turn, `NC(=O)c1ccc2c(C(N)=O)nn(CC(=O)N(CC(=O)NCc3cccc(Cl)c3F)C3CC3)c2c1` [Example 100, 1-(2-((2-((3-chloro-2-fluorobenzyl)amino)-2-oxoethyl)(cyclopropyl)amino)-2-oxoethyl)-1H-indazole-3,6-dicarboxamide] yielded an IC50 of under 0.1 µM.
On to `NCc1cc(Cl)c(F)c(CNC(=O)CN(C(=O)Cn2nc(C(N)=O)c3ccccc32)C2CC2)c1` [Example 101, 1-(2-((2-((5-(aminomethyl)-3-chloro-2-fluorobenzyl)amino)-2-oxoethyl)(cyclopropyl)amino)-2-oxoethyl)-1H-indazole-3-carboxamide], for which, under setting [1], the half-maximal inhibitory concentration (IC50) was 1 to 10 µM.
Still for that read-out and setting: in the case of `NC(=O)c1nn(CC(=O)N(CC(=O)NCc2cc(Cl)c3cn[nH]c3c2)C2CC2)c2ccccc12` [Example 102, 1-(2-((2-(((4-chloro-1H-indazol-6-yl)methyl)amino)-2-oxoethyl)(cyclopropyl)amino)-2-oxoethyl)-1H-indazole-3-carboxamide] it was 1 to 10 µM.
The same measure, in the same setting: next, `NC(=O)c1nn(CC(=O)N(CC(=O)NCc2cc(F)cc(Cl)c2)C2CC2)c2ccccc12` [Example 103, 1-(2-((2-((3-chloro-5-fluorobenzyl)amino)-2-oxoethyl)(cyclopropyl)amino)-2-oxoethyl)-1H-indazole-3-carboxamide]: 0.1 to 1 µM; `NC(=O)c1nn(CC(=O)N(CC(=O)NCc2ccc(Cl)c(Cl)c2)C2CC2)c2ccccc12` [Example 104, 1-(2-(cyclopropyl(2-((3,4-dichlorobenzyl)amino)-2-oxoethyl)amino)-2-oxoethyl)-1H-indazole-3-carboxamide]: 1 to 10 µM.
On the same count and under the same terms, next, `N#Cc1cccc2c(C(N)=O)nn(CC(=O)N(CC(=O)NCc3cccc(Cl)c3F)C3CC3)c12` [Example 105, 1-(2-((2-((3-chloro-2-fluorobenzyl)amino)-2-oxoethyl)(cyclopropyl)amino)-2-oxoethyl)-7-cyano-1H-indazole-3-carboxamide]: 1 to 10 µM; `NC(=O)c1nn(CC(=O)N(CC(=O)NCc2cccc(Cl)c2Cl)C2CC2)c2ccccc12` [Example 106, 1-(2-(cyclopropyl(2-((2,3-dichlorobenzyl)amino)-2-oxoethyl)amino)-2-oxoethyl)-1H-indazole-3-carboxamide]: 0.1 to 1 µM; `NC(=O)c1nn(CC(=O)N(CC(=O)NCc2cccc(Cl)n2)C2CC2)c2ccccc12` [Example 107, 1-(2-((2-(((6-chloropyridin-2-yl)methyl)amino)-2-oxoethyl)(cyclopropyl)amino)-2-oxoethyl)-1H-indazole-3-carboxamide]: 1 to 10 µM.
Consider `NC(=O)c1nn(CC(=O)N(CC(=O)NCc2ccc(F)c(Cl)c2)C2CC2)c2ccccc12` [Example 108, 1-(2-((2-((3-chloro-4-fluorobenzyl)amino)-2-oxoethyl)(cyclopropyl)amino)-2-oxoethyl)-1H-indazole-3-carboxamide], for which, under setting [1], the IC50 lay within 1 to 10 µM.
Same read-out and setting: in the case of `NC(=O)c1nn(CC(=O)N(CC(=O)NCc2cc(Cl)cc3cn[nH]c23)C2CC2)c2ccccc12` [Example 109, 1-(2-((2-(((5-chloro-1H-indazol-7-yl)methyl)amino)-2-oxoethyl)(cyclopropyl)amino)-2-oxoethyl)-1H-indazole-3-carboxamide] it was 1 to 10 µM; in that of `NC(=O)c1nn(CC(=O)N(CC(=O)NCc2cc(Cl)cc3ccoc23)C2CC2)c2ccccc12` [Example 110, 1-(2-((2-(((5-chlorobenzofuran-7-yl)methyl)amino)-2-oxoethyl)(cyclopropyl)amino)-2-oxoethyl)-1H-indazole-3-carboxamide], 0.1 to 1 µM.
Still for that read-out and setting: next, `NC(=O)c1nn(CC(=O)N(CC(=O)NCc2cccc(Cl)c2F)C2CC2)c2c(C(F)(F)F)cccc12` [Example 111, 1-(2-((2-((3-chloro-2-fluorobenzyl)amino)-2-oxoethyl)(cyclopropyl)amino)-2-oxoethyl)-7-(trifluoromethyl)-1H-indazole-3-carboxamide]: under 0.1 µM; `NC(=O)c1nn(CC(=O)N(CC(=O)NCc2cccc(Cl)c2)C2CC2)c2ccccc12` [Example 112, 1-(2-((2-((3-chlorobenzyl)amino)-2-oxoethyl)(cyclopropyl)amino)-2-oxoethyl)-1H-indazole-3-carboxamide]: 0.1 to 1 µM; `Cc1ccc(CNC(=O)CN(C(=O)Cn2nc(C(N)=O)c3ccccc32)C2CC2)cc1Cl` [Example 113, 1-(2-((2-((3-chloro-4-methylbenzyl)amino)-2-oxoethyl)(cyclopropyl)amino)-2-oxoethyl)-1H-indazole-3-carboxamide]: 1 to 10 µM.
The same measure, in the same setting: next, `NC(=O)c1nn(CC(=O)N(CC(=O)NCc2cc(Cl)c3[nH]ncc3c2)C2CC2)c2ccccc12` [Example 114, 1-(2-((2-(((7-chloro-1H-indazol-5-yl)methyl)amino)-2-oxoethyl)(cyclopropyl)amino)-2-oxoethyl)-1H-indazole-3-carboxamide]: 1 to 10 µM.
Consider `NC(=O)c1nn(CC(=O)N(CC(=O)NCc2ccccc2F)C2CC2)c2ccccc12` [Example 115, 1-(2-(cyclopropyl(2-((2-fluorobenzyl)amino)-2-oxoethyl)amino)-2-oxoethyl)-1H-indazole-3-carboxamide], for which, under setting [1], the concentration for half-maximal inhibition (IC50) was 1 to 10 µM.
On the same count and under the same terms, next, `COc1c(Cl)cccc1CNC(=O)CN(C(=O)Cn1nc(C(N)=O)c2ccccc21)C1CC1` [Example 116, 1-(2-((2-((3-chloro-2-methoxybenzyl)amino)-2-oxoethyl)(cyclopropyl)amino)-2-oxoethyl)-1H-indazole-3-carboxamide]: 1 to 10 µM; `NC(=O)c1ccc(CNC(=O)CN(C(=O)Cn2nc(C(N)=O)c3ccccc32)C2CC2)c(F)c1` [Example 117, 1-(2-((2-((4-carbamoyl-2-fluorobenzyl)amino)-2-oxoethyl)(cyclopropyl)amino)-2-oxoethyl)-1H-indazole-3-carboxamide]: 1 to 10 µM; `NC(=O)c1nn(CC(=O)N(CC(=O)NCc2cccc(N)c2F)C2CC2)c2ccccc12` [Example 118, 1-(2-((2-((3-amino-2-fluorobenzyl)amino)-2-oxoethyl)(cyclopropyl)amino)-2-oxoethyl)-1H-indazole-3-carboxamide]: 1 to 10 µM.
Same read-out and setting: next, `NC(=O)c1nn(CC(=O)N(CC(=O)NCc2cc(Cl)cc(Cl)c2)C2CC2)c2ccccc12` [Example 119, 1-(2-(cyclopropyl(2-((3,5-dichlorobenzyl)amino)-2-oxoethyl)amino)-2-oxoethyl)-1H-indazole-3-carboxamide]: 0.1 to 1 µM; `NC(=O)c1nn(CC(=O)N(CC(=O)NCc2cccc(Br)c2F)C2CC2)c2ccccc12` [Example 120, 1-(2-((2-((3-bromo-2-fluorobenzyl)amino)-2-oxoethyl)(cyclopropyl)amino)-2-oxoethyl)-1H-indazole-3-carboxamide]: under 0.1 µM; `NC(=O)c1nn(CC(=O)N(CC(=O)NCc2ccc(N)cc2F)C2CC2)c2ccccc12` [Example 121, 1-(2-((2-((4-amino-2-fluorobenzyl)amino)-2-oxoethyl)(cyclopropyl)amino)-2-oxoethyl)-1H-indazole-3-carboxamide]: 1 to 10 µM.
On the same count and under the same terms, next, `COc1cccc(CNC(=O)CN(C(=O)Cn2nc(C(N)=O)c3ccccc32)C2CC2)c1F` [Example 122, 1-(2-(cyclopropyl(2-((2-fluoro-3-methoxybenzyl)amino)-2-oxoethyl)amino)-2-oxoethyl)-1H-indazole-3-carboxamide]: 1 to 10 µM; `N#Cc1cccc(CNC(=O)CN(C(=O)Cn2nc(C(N)=O)c3ccccc32)C2CC2)c1F` [Example 123, 1-(2-((2-((3-cyano-2-fluorobenzyl)amino)-2-oxoethyl)(cyclopropyl)amino)-2-oxoethyl)-1H-indazole-3-carboxamide]: 1 to 10 µM.
Regarding `NC(=O)c1nn(CC(=O)N(CC(=O)NCc2cc(Cl)cc(C(F)(F)F)c2)C2CC2)c2ccccc12` [Example 124, 1-(2-((2-((3-chloro-5-(trifluoromethyl)benzyl)amino)-2-oxoethyl)(cyclopropyl)amino)-2-oxoethyl)-1H-indazole-3-carboxamide], under setting [1], the IC50 was 1 to 10 µM.
The same measure, in the same setting: in the case of `COc1ccc(CNC(=O)CN(C(=O)Cn2nc(C(N)=O)c3ccccc32)C2CC2)cc1Cl` [Example 125, 1-(2-((2-((3-chloro-4-methoxybenzyl)amino)-2-oxoethyl)(cyclopropyl)amino)-2-oxoethyl)-1H-indazole-3-carboxamide] it was 1 to 10 µM; in that of `NC(=O)c1nn(CC(=O)N(CC(=O)NCc2cccc(CO)c2F)C2CC2)c2ccccc12` [Example 126, 1-(2-(cyclopropyl(2-((2-fluoro-3-(hydroxymethyl)benzyl)amino)-2-oxoethyl)amino)-2-oxoethyl)-1H-indazole-3-carboxamide], over 10 µM; in that of `NC(=O)c1nn(CC(=O)N(CC(=O)NCc2cccc(C3CC3)c2F)C2CC2)c2ccccc12` [Example 127, 1-(2-(cyclopropyl(2-((3-cyclopropyl-2-fluorobenzyl)amino)-2-oxoethyl)amino)-2-oxoethyl)-1H-indazole-3-carboxamide], 1 to 10 µM.
The same measure, in the same setting: next, `Cc1cccc(CNC(=O)CN(C(=O)Cn2nc(C(N)=O)c3ccccc32)C2CC2)c1F` [Example 128, 1-(2-(cyclopropyl(2-((2-fluoro-3-methylbenzyl)amino)-2-oxoethyl)amino)-2-oxoethyl)-1H-indazole-3-carboxamide]: 0.1 to 1 µM; `Cc1cc(Cl)cc(CNC(=O)CN(C(=O)Cn2nc(C(N)=O)c3ccccc32)C2CC2)c1` [Example 129, 1-(2-((2-((3-chloro-5-methylbenzyl)amino)-2-oxoethyl)(cyclopropyl)amino)-2-oxoethyl)-1H-indazole-3-carboxamide]: 1 to 10 µM.

The record behind these values is patent US20190292155A1, “THERAPEUTIC INHIBITORY COMPOUNDS” (LifeSci Pharmaceuticals, Inc., priority 2016, published 2019).
